From ChEMBL document CHEMBL1146441, “Naphthalenone and Phthalide Metabolites from Lachnum papyraceum 1” (J Nat Prod, 1997) come the findings set out here.

Converted amounts (≈) assume the structure as drawn. The source made the active and inactive calls. The calls are words filed in the database; no cut-off is given here.

The test system of one assay is Micrococcus luteus. As to the kind of experiment: Antibacterial activity against Micrococcus luteus. The class given is functional.
The subject of assay [1] is Enterobacter cloacae subsp. dissolvens. As to the kind of experiment: Antibacterial activity against Enterobacter dissolvens. The class given is functional.
Another assay relates to Rhizomucor miehei. As to the kind of experiment: Antifungal activity against Mucor miehei. The class given is functional.
The subject of the next assay is Paecilomyces variotii. Briefly: Antifungal activity against Paecilomyces variotii. The class given is functional.
The test system of another assay is Penicillium chrysogenum. As to the kind of experiment: Antifungal activity against Penicillium notatum. The class given is functional.
The next assay deals with L1210. Briefly: Cytotoxicity against mouse L1210 cells after 48 hrs. The class given is functional, cell-based. The settings on record: L1210, 48 h.
The test system of a further assay is Lepidium sativum. Briefly: Phytotoxicity against Lepidium sativum assessed per disk. The class given is functional, organism-based.

Broadly, the MIC is the lowest concentration that inhibits growth of the organism. Low readings indicate inhibition by little substance, high ones a need for much substance.

Regarding `COC(=O)c1c(OC)c(C)c(OCC=C(C)C)c2c1C(=O)OC2`, the outcome (in the assay with Micrococcus luteus; in assay [1]; in the assay with Rhizomucor miehei; in the assay with Paecilomyces variotii; with Penicillium chrysogenum; in the assay on Lepidium sativum) was inactive. This molecule displayed an IC50 with L1210 of 25 µg/mL (≈ 78 µM).

Take `COc1cc2c(c(O)c1C)C(=O)CCC2O` (stereo unspecified): the MIC (against Micrococcus luteus; in assay [1]; in the assay on Rhizomucor miehei; in the assay on Paecilomyces variotii; against Penicillium chrysogenum) was 100 µg/mL (≈ 450 µM) each time. The IC50 in the assay with L1210 came to 25 µg/mL (≈ 112 µM); in the assay on Lepidium sativum, 100 µg.

On to `COc1c(C)c(OCC=C(C)C)c2c(c1C(=O)O)C(=O)OC2`, for which the outcome (in the assay on Micrococcus luteus; in assay [1]; in the assay with Rhizomucor miehei; in the assay on Paecilomyces variotii; in the assay on Penicillium chrysogenum; in the assay with Lepidium sativum) was inactive. This molecule also registered an IC50 in the assay with L1210 of 50 µg/mL (≈ 163 µM).
